In patent publication US6461638B1, “Laxative compositions and method for making same” (Techni-Pharma, priority 1996, dated 2002):

Test: Effervescence measure by release of CO2, Bernard's calcimeter, water heated to 37° C.
Type: physicochemical
Details: acid compound mixed with Na bicarbonate
Excerpt: Effervescence Measure by Release of CO2
Working of the Bernard's calcimeter.
The assay consists in verifying the working of the equipment of the Bernard's calcimeter.
A little modification has been made on the rubber stopper of the lateral neck by adding a tap. This addition is necessary until at time 0, the experiment begins with an inner pressure equal to the atmospheric pressure.
Introduce a saturated sodium chloride solution in the flask and the graduated tube
Adjust the level of the graduated tube before starting the experiment
Lay on the magnetic heating stirrer the flask containing 100 ml of distilled water at 37° C.
Fill up the flask with a stopper previously fixed at the end of the releasing tube of CO2
Introduce the suppository in the flask without contact occurring between the suppository and the water
Verify again the sodium chloride level in the graduated tube before turning off the tap of the side stopper
Turn on the stirrer and drop the suppository, without forget to unlock the chronometer
Thus, it is necessary to heat the water until 37° C. Thus a magnetic heating stirrer has been used.

O=C1CCC(=O)N1 [succinimide]
CO2 release (in words): only induces a reduced and delayed release
